According to patent US11028078B2 (The Johns Hopkins University, priority 2011, dated 2021):
Read-outs that look alike come from different tables or passages of the source.

How the values were obtained:
[1] = system: HUVEC; experiment: HUVEC proliferation assay ([3H]thymidine incorporation); type: cell-based, human; conditions: Homo sapiens, HUVEC
In short: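 Pooled HUVEC at passage eight or lower, grown in EGM-2 medium; proliferation measured by [3H]thymidine incorporation as in an earlier published protocol.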

[2] = molecular target: T1, CYP3A4 (Homo sapiens, UniProt P08684); experiment: CYP3A4 enzyme assay (Vivid CYP3A4 Green Screening Kit); type: in vitro ADME
T1 construct: purchased ThermoFisher P2857; host or cells: baculosomes
T1 sequence (P08684 whole entry): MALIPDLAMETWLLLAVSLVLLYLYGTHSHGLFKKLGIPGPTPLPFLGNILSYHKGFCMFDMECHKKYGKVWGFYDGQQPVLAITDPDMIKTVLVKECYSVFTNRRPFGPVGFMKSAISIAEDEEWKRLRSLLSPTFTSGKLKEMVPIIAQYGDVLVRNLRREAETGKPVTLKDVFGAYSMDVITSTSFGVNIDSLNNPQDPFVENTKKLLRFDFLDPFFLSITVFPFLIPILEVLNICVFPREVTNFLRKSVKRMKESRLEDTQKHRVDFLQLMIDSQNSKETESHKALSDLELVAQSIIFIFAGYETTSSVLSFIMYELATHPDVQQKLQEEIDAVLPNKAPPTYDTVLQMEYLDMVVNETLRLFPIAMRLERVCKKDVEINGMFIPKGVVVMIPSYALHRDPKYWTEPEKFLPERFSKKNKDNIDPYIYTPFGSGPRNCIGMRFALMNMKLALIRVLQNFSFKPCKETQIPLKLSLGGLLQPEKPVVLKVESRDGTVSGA

[3] = molecular target: T1, CYP3A4; experiment: as above; type: in vitro ADME; conditions: for CYP3A4 Inhibition (compared to intracozanole at 1 μm): % enzyme inhibition at 1 μM drug / % enzyme inhibition at 1 μM itraconazole
Procedure: And CYP3A4 inhibition was initially determined using a cell-free fluorescence-based assay at a final concentration of 1 μM (Table 7).
CYP3A4 enzyme assay. CYP3A4 enzyme activity was tested using Vivid™ CYP3A4 Green Screening Kit (ThermoFisher, #P2857) using the manufacturer's protocol. Briefly, CYP3A4 baculosomes and drugs were incubated 10 min at 37° C. Then Vivid® Substrates were added and the fluorescence (ex/em:485/520) were read every 1 min for 60 minute.

[4] = system: AMPKα, ACC1, mTOR, p70 S6 Kinase phosphorylation; experiment: Western blot of AMPK/mTOR signaling in HUVEC; type: cell-based, human; conditions: 24 h
Procedure: Cell lysates were subjected to Western blot.
(§1) We thus determined whether compound 248 shared the same mechanism with itraconazole. The intracellular cholesterol was detected using the cholesterol-binding fluorescent dye filipin. […] It is known that AMPK activation leads to mTOR inhibition.
Western blot. […] Then cells were lysed using RIPA buffer and the protein concentration were measured and normalized. After electrophoresis and transfer onto 0.45 um nitrocellulose membranes, the membranes were bolted with 5% BSA for 1 h and then incubated overnight at 4° C. Secondary antibody was applied to each membrane for 1 hour. Bolts were imaged using Syngene PXi imaging system after adding chemiluminescent substrate. The following antibodies were used for the assay: AMPKα (1:1,000, cell signaling, #2532s), phosphor-AMPKα (1:1,000, cell signaling #2535s), ACC (1:1,000, cell signaling #3662s), phosphor-ACC (1:1,000, cell signaling, #3661s), mTOR (1:1,000, cell signaling, #2972S), phosphor-mTOR (1:1,000, cell signaling, #9234s), p70 S6 Kinase (1:1,000, senta cruz, #sc-8418), phosphor-p70 S6 Kinase (1:1,000, cell signaling, #3662s), anti-Rabbit IgG (1:10000, GE lifesciences, #NA934V).

[5] = system: HUVEC; experiment: Filipin staining of intracellular cholesterol (NPC phenotype); type: cell-based, human; conditions: 0.1 μM, 0.2 μM for 24 h in FIG. 14 legend
Procedure: Intracellular cholesterol was visualized using filipin staining and fluorescent images were captured under a confocal microscope.
as §1
Filipin staining. 2000 HUVECs were plated in chamber slide with 1 ml media and allowed to settle overnight. cCells were treated with 0.1 uM drug or DMSO for 14 hours. The the cells were fixed with 4% paraformaldehyde for 15 min. After washed, cells were incubated with 500 ul 50 ug/ml filipin solution for 1 hour in the dark. Then the cells were washed twice with PBS, mounted and covered with coverslip. The images were taken using confocal microscope under 360/460 nm.

[6] = system: VEGFR2; experiment: VEGFR2 glycosylation in HUVEC (Western blot scoring); type: cell-based, human; conditions: VEGFR2 hypoglycosylation score in HUVEC, 2 μM, 24 h; also: key: ++: robust; +: intermediate; −: absent
[7] = system: HUVEC tube formation; experiment: HUVEC tube formation assay on Matrigel; type: cell-based; conditions: Homo sapiens, 20 h, read-out: inhibition of HUVEC tube formation (total tube length)
[8] = system: Gli1 transcript; experiment: Quantification of Gli1 transcript by TaqMan analysis in MB cells (Hh pathway); type: cell-based, mouse
In short: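 After drug exposure, total RNA extracted from MB cells, reverse transcribed, and Gli1 quantified by TaqMan qPCR with mouse Gli-1 and actin primer/probe sets. Values expressed as fold induction relative to control by the 2^−ΔΔCt method, normalized to actin.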

[9] = 3H thymidine incorporation, in μM, read-out: Proliferation IC50

## CCC(C)n1ncn(-c2ccc(N3CCN(c4ccc(OC[C@@H]5CO[C@@](CC)(c6ccc(Cl)cc6Cl)O5)cc4)CC3)cc2)c1=O (stereo partly drawn) [Compound 259, 1-sec-butyl-4-(4-(4-(4-(((2R,4R)-2-(2,4-dichlorophenyl)-2-ethyl-1,3-dioxolan-4-yl)methoxy)phenyl)piperazin-1-yl)phenyl)-1H-1,2,4-triazol-5(4H)-one]
[1]; [9]
  IC50: 0.314 µM
[2]; FIG. 12, higher concentrations
  CYP3A4 inhibition in dose response assays: totally lost CYP3A4 inhibition
[3]
  CYP3A4 Inhibition (compared to intracozanole at 1 μm): No inhibition

## CCC(C)n1ncn(-c2ccc(N3CCN(c4ccc(OC[C@@H]5CO[C@@](Cn6cnnn6)(c6ccc(Cl)cc6Cl)O5)cc4)CC3)cc2)c1=O (stereo partly drawn) [Compound 248, 4-(4=(4-(4-(((2S,4R)-2-((1H-tetrazol-1-yl)methyl)-2-(2,4-dichlorophenyl)-1,3-dioxolan-4-yl)methoxy)phenyl)piperazin-1-yl)phenyl)-1-sec-butyl-1H-1,2,4-triazol-5(4H)-one]
[4]; 0.01-1 μM, dose-dependent
  phosphorylation of AMPKα at Thr172: increased
[4]
  phosphorylation of acetyl CoA carboxylase 1 (ACC1): increased
  phosphorylation of mTOR: decrease
  phosphorylation of p70 S6 Kinase (S6K): decrease
[5]
  NPC phenotype (cholesterol accumulation in late endosome/lysosome): induced NPC phenotype
[2]; dose response, FIG. 12, read-out: CYP3A4 inhibition IC50
  IC50: > 20000 nM
[3]
  CYP3A4 Inhibition (compared to intracozanole at 1 μm): 0.02

## CCC(C)n1ncn(-c2ccc(N3CCN(c4ccc(OC[C@@H]5CO[C@@](Cn6nnnc6-c6ccccc6)(c6ccc(Cl)cc6Cl)O5)cc4)CC3)cc2)c1=O (stereo partly drawn) [Compound 253, 1-sec-butyl-4-(4-(4-(4-(((2S,4R)-2-(2,4-dichlorophenyl)-2-((5-phenyl-1H-tetrazol-1-yl)methyl)-1,3-dioxolan-4-yl)methoxy)phenyl)piperazin-1-yl)phenyl)-1H-1,2,4-triazol-5(4H)-one]
[1]; [9]
  IC50: 0.119 µM
[3]
  CYP3A4 Inhibition (compared to intracozanole at 1 μm): 0.22

## CCC(C)n1ncn(-c2ccc(N3CCN(c4ccc(OC[C@@H]5CO[C@@](Cn6cnc(C(F)(F)F)n6)(c6ccc(Cl)cc6Cl)O5)cc4)CC3)cc2)c1=O (stereo partly drawn) [Compound 251, 1-sec-butyl-4-(4-(4-(4-(((2S,4R)-2-(2,4-dichlorophenyl)-2-((3-(trifluoromethyl)-1H-1,2,4-triazol-1-yl)methyl)-1,3-dioxolan-4-yl)methoxy)phenyl)piperazin-1-yl)phenyl)-1H-1,2,4-triazol-5(4H)-one]
[1]; read-out: IC50 for inhibition of HUVEC proliferation
  IC50: 0.27 µM
[1]; [9]
  IC50: 0.272 µM
[3]; 1 μM
  CYP3A4 inhibition in the initial screening: eliminated CYP3A4 inhibition
[3]
  CYP3A4 Inhibition (compared to intracozanole at 1 μm): No inhibition

## CCC(C)n1ncn(-c2ccc(N3CCN(c4ccc(OC[C@@H]5CO[C@@](CN6CCOCC6)(c6ccc(Cl)cc6Cl)O5)cc4)CC3)cc2)c1=O (stereo partly drawn) [Compound 263, 1-(sec-butyl)-4-(4-(4-(4-(((2S,4R)-2-(2,4-dichlorophenyl)-2-(morpholinomethyl)-1,3-dioxolan-4-yl)methoxy)phenyl)piperazin-1-yl)phenyl)-1H-1,2,4-triazol-5(4H)-one]
[1]; [9]
  IC50: 1.18 µM
[3]
  CYP3A4 Inhibition (compared to intracozanole at 1 μm): 0.20

## CCC(C)n1ncn(-c2ccc(N3CCN(c4ccc(OCC5COC(Cn6cncn6)(c6ccc(Cl)cc6Cl)O5)cc4)CC3)cc2)c1=O (centres unmarked) [Itraconazole, reference compound]
[6]
  Glycosylation (2 μM dose): ++
[7]
  inhibition at 5 µM: 45%
[5]
  NPC phenotype (cholesterol accumulation in late endosome/lysosome): induce NPC phenotype
[8]; Gli1 transcript fold induction score, MB cells exposed 24 h at the IC90 for MB proliferation
  Gli I Inhibition (IC90 Prolif. dose): ++ (≤0.15)
[8]; established MB cultures, FIG. 9B
  inhibition of Gli1 transcript levels: Dose-dependent inhibition
